{
  "source": "paper PMC6514909",
  "about": "“Synthesis of New Derivatives of Benzofuran as Potential Anticancer Agents” (Molecules, 2019)",
  "key": {"HL-60 leukemic cell line": {"tested_on": "HL-60 leukemic cell line", "set-up": "method as in PMID 25482722, PMID 30465514", "conditions": "previous studies; cited from earlier work"}, "K562 leukemic cell line": {"tested_on": "K562 leukemic cell line", "set-up": "method as in PMID 25482722, PMID 30465514", "conditions": "previous studies; cited from earlier work"}, "HeLa cancer cells": {"tested_on": "HeLa cancer cells", "set-up": "method as in PMID 25482722, PMID 30465514", "conditions": "previous studies; cited from earlier work"}, "[1]": {"tested_on": "healthy endothelial cells (HUVEC)", "set-up": "method as in PMID 25482722, PMID 30465514", "conditions": "previous studies; cited from earlier work"}, "cancer cells": {"tested_on": "cancer cells", "set-up": "method as in PMID 25482722, PMID 30465514", "conditions": "previous studies; cited from earlier work"}, "[2]": {"tested_on": "caspase 3/7 in K562 cells", "test": "Apo-ONE Homogeneous Caspase-3/7 Assay in K562 cells", "assay_type": "cell-based, human", "conditions": "compound at 5 × IC50 (staurosporine 1 µM), 18 h, 1% DMSO normalized to 1.0", "description": "We have measured the activity of caspases 3 and 7 (caspase 3/7), which are markers of programmed cell death. […] The activity of caspase 3/7 was measured using pro-fluorescent peptide substrate.\n20 × 10^3 K562 cells were seeded on each well of 96-well plate in RPMI 1640 medium supplemented with 10% fetal calf serum and antibiotics. Cells were grown for 24 h at 37 °C and 5% CO2. The test compounds were dissolved in DMSO and added to the cell culture. The concentration of tested benzo[b]furans in cell culture was 5 × IC50.\nCells treated with 1% DMSO served as a negative control, while cells incubated with staurosporine (a strong inducer of apoptosis) were used as a positive control. Cells were exposed to test compounds for 18 h at 37 °C and 5% CO2. Subsequently, Apo-ONE® Homogeneous Caspase-3/7 Assay (Promega, Madison, WI, USA) measured the activity of caspase 3 and 7, according to the manufacturer’s instructions. Briefly, the cells were lysed and incubated for 1.5 h with profluorescent substrate for caspase 3 and 7. Next, fluorescence was read at an excitation wavelength of 485 nm and emission of 520 nm with FLUOStar Omega plate reader (BMG-Labtech, Ortenberg, Germany).\nFigure 5 Activity of caspase 3 and 7 in K562 cells treated with the test benzofurans 1c, 1e, 2d, 3d, or staurosporine for 18 h. Apoptosis was determined by Apo-ONE® Homogeneous Caspase-3/7 Assay (Promega, Madison, WI, USA). Abbreviations: DMSO—K562 cells treated with 1% DMSO. The caspase activation level in cells exposed to 1% DMSO was normalized to 1.0. Mean values +/− SD are shown."}, "[3]": {"tested_on": "Human umbilical vein endothelial cells (HUVEC)", "test": "MTT cytotoxicity assay, HUVEC", "assay_type": "cell-based", "description": "(§1) Fourteen new benzofuran derivatives were tested for their cytotoxic properties in K562, MOLT-4 (leukemia, suspension cells), HeLa (cervix carcinoma, adherent cells), and normal endothelial cells (HUVEC). First, we measured the viability of cells after 48 h incubation with the given compound at the concentration of 100 μM. Next, for compounds that reduced cancer cells survival for more than 50%, we determined IC50 values. Cells that were exposed to 1% DMSO (a vehicle) served as the control with 100% survival. Cells treated with 1 µM staurosporine served as the internal control of the cytotoxicity experiments.\n(§2) Human umbilical vein endothelial cells (Life Technologies, Waltham, MA, USA) were cultured (according to the manufacturer instructions) in Medium 200 supplemented with Low Serum Growth Supplement. 1 × 10^4 HUVEC cells were seeded on each well on a 96-well plate (Nunc). The HeLa (human cervix carcinoma) K562 and MOLT-4 (leukemia) cells were cultured in RPMI 1640 medium supplemented with antibiotics and 10% fetal calf serum (HeLa, K562) in a 5% CO2-95% air atmosphere. 7 × 10^3 HeLa, K562, or MOLT-4 cells were seeded on each well on 96-well plate (Nunc). 24 h later cells were treated with the test compounds and then incubated for an additional 48 hours. Stock solutions of test compounds were freshly prepared in DMSO (dimethylsulfoxide). The final concentrations of compounds that were tested in the cell cultures were: 2 × 10^−1, 1 ×10^−1, 5 × 10^−2, 1 × 10^−2, 1 × 10^−3 and 1 × 10^−4 mM. The concentration of DMSO in the cell culture medium was 1%.\n(§3) The values of IC50 (the concentration of test compound that is required to reduce the cell survival fraction to 50% of the control) were calculated from dose-response curves and used as a measure of cellular sensitivity to a given treatment.\n(§4) The MTT [3-(4,5-dimethylthiazol-2-yl)-2,5-diphenyltetrazolium bromide; Sigma, St. Louis, MO, USA] assay determined the cytotoxicity of all the compounds, as described previously. Briefly, after 24 h or 48 h of incubation with the drug, the cells were treated with the MTT reagent, and incubation was continued for 2 h. MTT-formazan crystals were dissolved in 20% SDS and 50% DMF at pH 4.7 and absorbance was read at 570 and 650 nm on an ELISA-PLATE READER (FLUOstar Omega, BMG LABTECH GmbH, Ortenberg, Germany). As a control (100% viability), cells that were grown in the presence of medium vehicle only with 1% DMSO were used."}, "cancer cell lines": {"tested_on": "cancer cell lines", "test": "MTT cytotoxicity, cancer cell lines overall", "assay_type": "cell-based, human", "conditions": "compared to lead compounds VIII-X", "description": "as §1, §2, §3, §4"}, "[4]": {"tested_on": "HeLa (human cervix carcinoma) cells", "test": "MTT cytotoxicity assay, HeLa", "assay_type": "cell-based", "description": "as §1, §2, §3, §4"}, "MOLT-4 (leukemia) cells": {"tested_on": "MOLT-4 (leukemia) cells", "test": "MTT cytotoxicity assay, MOLT-4", "assay_type": "cell-based, human", "description": "as §1, §2, §3, §4"}, "[5]": {"tested_on": "plasmid DNA (pcDNA3.1 HisC)", "test": "Digestion of plasmid DNA with BamHI restriction nuclease", "assay_type": "biochemical", "conditions": "100 µM, overnight 37 °C, then BamHI 3 h; agarose gel", "from_the_text": "We hypothesized that a possible explanation of observed cytotoxicity might be due to an interaction of test benzofurans with genomic DNA (e.g., by intercalation). To verify this hypothesis, we investigated whether the test benzofurans have any effect on digestion of a plasmid DNA (pcDNA3.1 HisC) with endonuclease BamH1. pcDNA3.1 HisC contains a unique BamH1 restriction site which allows for plasmid linearization. Plasmid DNA exists in linear, superhelical, and circular forms that differ in electrophoretic mobility (Figure 6 lane 1). Plasmid DNA was converted to a linear form upon digestion with BamH1 (lane 2). […] In the presence of test compounds, pcDNA3.1 HisC was partially digested with Bam H1 restriction enzyme (Figure 6 lanes 4–7). Most of the plasmid DNA was converted to a linear form, however there is a circular form still present.\n0.5 μg of plasmid DNA (pcDNAHisC, total length 5.5 kbp) containing a unique BamHI restriction site was dissolved in a 1× BamHI reaction buffer and then incubated overnight at 37 °C with the test compounds or daunorubicin, a strong intercalating agent, which was used as a positive control. The concentration of the test compounds and daunorubicin samples was 100 µM. In the next step, the reaction mixtures were digested with BamHI restriction endonuclease (2 U/μL) for 3 h at 37 °C. The total reaction volume was 10 μL. Products of the reaction were subjected to the 1% agarose gel electrophoresis in TBE buffer. The gel was stained with ethidium bromide and DNA fragments were visualized under a UV lamp (GBox, Syngene, Cambridge, UK).\nFigure 6 Digestion of pcDNA3.1HisC (total length 5.5kbp) with BamH1 endonuclease. M—marker DNA; 1—not digested plasmid DNA; 2—plasmid DNA digested with BamH1 (DNA present in linear form); 3—plasmid DNA + daunorubicin + BamH1; 4—plasmid DNA + 1c + BamH1; 5—plasmid DNA + 2d + BamH1; 6—plasmid DNA + 1e + BamH1; and, 7—plasmid DNA + 3d + BamH1."}, "K562 (leukemia) cells": {"tested_on": "K562 (leukemia) cells", "test": "MTT cytotoxicity assay, K562", "assay_type": "cell-based, human", "conditions": "initial screening, 100 μM, 48 h", "description": "as §1, §2, §3, §4"}, "[6]": {"conditions": "initial screening, 100 μM, 48 h"}},
  "data": [
    {"smiles": "COc1cc2c(CBr)c(C(C)=O)oc2c(C(C)=O)c1OC", "note": "[VIII]", "values": [
      {"measurement": "IC50", "setting": "HL-60 leukemic cell line", "value": 0.1, "unit": "µM"},
      {"measurement": "IC50", "setting": "K562 leukemic cell line", "value": 5, "unit": "µM"},
      {"measurement": "IC50", "setting": "HeLa cancer cells", "value": "> 1000", "unit": "µM"},
      {"measurement": "IC50", "setting": "[1]", "value": "> 1000", "unit": "µM"}
    ]},
    {"smiles": "COC(=O)c1c(C)oc2cc(C(=O)C(Br)Br)c(O)c(Br)c12", "note": "[IX]", "values": [
      {"measurement": "IC50 towards cancer cells", "setting": "cancer cells", "value": "in a few µM range"},
      {"measurement": "toxicity towards endothelial cells (HUVEC)", "setting": "[1]", "value": "non-toxic"}
    ]},
    {"smiles": "COC(=O)c1c(C)oc2cc(C(=O)C(Br)Br)c(OC)cc12", "note": "[X, methyl 6-(dibromoacetyl)-5-methoxy-2-methylbenzofuran-3-carboxylate]", "values": [
      {"measurement": "IC50 towards cancer cells", "setting": "cancer cells", "value": "in a few µM range"},
      {"measurement": "toxicity towards endothelial cells (HUVEC)", "setting": "[1]", "value": "non-toxic"}
    ]},
    {"smiles": "COC(=O)c1c(CBr)oc2cc(C(C)=O)c(O)cc12", "note": "[Compound 2d, Methyl 6-acetyl-2-(bromomethyl)-5-hydroxybenzofuran-3-carboxylate]", "values": [
      {"measurement": "increase in the activity of caspase 3/7", "setting": "[2]", "value": "about two-fold"},
      {"measurement": "IC50", "setting": "[3]; Homo sapiens, HUVEC, 48 h incubation with cells, MTT", "value": 30, "unit": "µM"},
      {"measurement": "cytotoxicity against human normal endothelial cells", "setting": "[3]; [6]", "value": "cytotoxic"},
      {"measurement": "decrease of cytotoxicity against human cancer cells compared to the lead compounds VIII-X", "setting": "cancer cell lines", "value": "5–10 folds"},
      {"measurement": "IC50", "setting": "[4]; Homo sapiens, HeLa, 48 h incubation with cells, MTT", "value": 35, "unit": "µM"},
      {"measurement": "reduction of viability of HeLa cells", "setting": "[4]; [6]", "value": "more than 50%"},
      {"measurement": "IC50", "setting": "MOLT-4 (leukemia) cells; Homo sapiens, MOLT-4, 48 h incubation with cells, MTT", "value": 35, "unit": "µM"},
      {"measurement": "reduction of viability of MOLT-4 cells", "setting": "MOLT-4 (leukemia) cells; [6]", "value": "more than 50%"},
      {"measurement": "inhibition of digestion of plasmid DNA with BamH1 / interaction with DNA", "setting": "[5]", "value": "to some extent, interact with DNA"},
      {"measurement": "reduction of viability of K562 cells", "setting": "K562 (leukemia) cells", "value": "more than 50%"}
    ]}
  ]
}
